For 29 compounds, IC50 results are on record in patent US8569344B2, “N-piperidinyl acetamide derivatives as calcium channel blockers” (Zalicus Pharmaceuticals Ltd., priority 2008, dated 2013).

A word on the IC50: it is the concentration that inhibits the measured activity by half.

The target of the test is T1, human α1G T-type channels (Homo sapiens, UniProt O43497).
T1 construct: expressed in transfected cells; host or cells: HEK 293
T1 sequence (O43497 whole entry): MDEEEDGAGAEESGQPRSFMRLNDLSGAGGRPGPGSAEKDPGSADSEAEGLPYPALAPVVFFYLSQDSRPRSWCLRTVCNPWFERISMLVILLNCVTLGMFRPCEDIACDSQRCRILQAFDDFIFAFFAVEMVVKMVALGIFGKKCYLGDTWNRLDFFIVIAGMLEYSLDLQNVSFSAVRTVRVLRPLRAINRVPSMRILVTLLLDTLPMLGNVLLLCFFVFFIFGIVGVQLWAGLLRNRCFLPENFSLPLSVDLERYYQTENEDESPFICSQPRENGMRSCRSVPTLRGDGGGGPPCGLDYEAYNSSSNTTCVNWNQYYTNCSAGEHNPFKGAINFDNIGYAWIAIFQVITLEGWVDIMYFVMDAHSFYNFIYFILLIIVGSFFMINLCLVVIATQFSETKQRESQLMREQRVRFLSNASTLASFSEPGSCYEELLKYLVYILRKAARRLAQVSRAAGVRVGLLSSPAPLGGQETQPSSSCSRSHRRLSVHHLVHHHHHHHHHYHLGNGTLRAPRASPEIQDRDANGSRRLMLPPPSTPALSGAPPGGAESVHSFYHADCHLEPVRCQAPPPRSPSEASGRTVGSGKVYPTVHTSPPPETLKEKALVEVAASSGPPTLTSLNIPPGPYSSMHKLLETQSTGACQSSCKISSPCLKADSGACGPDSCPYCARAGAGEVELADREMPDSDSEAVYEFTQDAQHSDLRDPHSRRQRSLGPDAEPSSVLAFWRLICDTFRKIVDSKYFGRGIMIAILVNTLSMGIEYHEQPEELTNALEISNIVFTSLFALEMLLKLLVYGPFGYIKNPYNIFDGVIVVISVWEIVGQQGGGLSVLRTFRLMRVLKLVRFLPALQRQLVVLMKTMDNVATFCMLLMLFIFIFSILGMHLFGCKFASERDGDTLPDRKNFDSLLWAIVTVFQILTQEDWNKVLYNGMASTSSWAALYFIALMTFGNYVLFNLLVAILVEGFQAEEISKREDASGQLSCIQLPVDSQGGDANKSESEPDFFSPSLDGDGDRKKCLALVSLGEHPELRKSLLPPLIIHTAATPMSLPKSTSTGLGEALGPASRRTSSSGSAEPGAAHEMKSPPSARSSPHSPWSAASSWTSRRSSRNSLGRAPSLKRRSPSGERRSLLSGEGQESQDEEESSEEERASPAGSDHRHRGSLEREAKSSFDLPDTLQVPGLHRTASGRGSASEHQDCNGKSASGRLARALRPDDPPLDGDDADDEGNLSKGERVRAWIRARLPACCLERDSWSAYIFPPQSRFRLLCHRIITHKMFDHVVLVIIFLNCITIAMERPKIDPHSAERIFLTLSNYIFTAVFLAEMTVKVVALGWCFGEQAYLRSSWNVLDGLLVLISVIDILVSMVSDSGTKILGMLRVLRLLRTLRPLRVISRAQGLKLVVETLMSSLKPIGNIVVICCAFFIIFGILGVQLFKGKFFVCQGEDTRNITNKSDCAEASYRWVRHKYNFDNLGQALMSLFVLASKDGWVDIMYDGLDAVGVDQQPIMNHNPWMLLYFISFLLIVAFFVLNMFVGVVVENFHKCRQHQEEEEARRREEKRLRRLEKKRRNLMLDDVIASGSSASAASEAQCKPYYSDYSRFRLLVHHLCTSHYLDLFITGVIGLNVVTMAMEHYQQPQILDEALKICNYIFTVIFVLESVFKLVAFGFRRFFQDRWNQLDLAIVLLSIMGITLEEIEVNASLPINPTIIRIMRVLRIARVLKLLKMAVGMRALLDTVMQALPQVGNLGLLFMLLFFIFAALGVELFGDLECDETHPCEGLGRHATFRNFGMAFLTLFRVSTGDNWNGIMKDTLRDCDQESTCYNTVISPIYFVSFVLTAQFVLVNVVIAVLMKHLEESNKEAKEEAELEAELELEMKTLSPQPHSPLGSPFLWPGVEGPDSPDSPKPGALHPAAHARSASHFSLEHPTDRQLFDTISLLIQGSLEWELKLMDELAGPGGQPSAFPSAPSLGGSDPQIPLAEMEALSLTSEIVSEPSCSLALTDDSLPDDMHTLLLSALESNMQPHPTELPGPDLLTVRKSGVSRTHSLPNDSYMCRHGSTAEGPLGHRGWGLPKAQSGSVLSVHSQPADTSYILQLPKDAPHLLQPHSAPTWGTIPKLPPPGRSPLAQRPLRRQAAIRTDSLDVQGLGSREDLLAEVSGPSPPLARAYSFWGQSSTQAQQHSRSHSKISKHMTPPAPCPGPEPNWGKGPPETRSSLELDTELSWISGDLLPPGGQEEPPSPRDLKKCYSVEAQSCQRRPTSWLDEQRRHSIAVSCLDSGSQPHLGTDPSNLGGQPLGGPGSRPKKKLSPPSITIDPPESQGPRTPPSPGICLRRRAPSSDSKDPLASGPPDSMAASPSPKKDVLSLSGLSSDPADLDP
The test is described as follows: T-type calcium channel block, whole cell patch clamp in HEK cells (α1G). Format: cell-based. The conditions noted are these: HEK cells, patch clamp, mainly non-inactivated protocol; values above 10 μM shown as 10 μM, below 0.30 μM shown as 0.30 μM; read-out: T-type Calcium Channel Block α1G IC50. On the procedure:
T-type calcium channel blocking activity was assayed in human embryonic kidney cells, HEK 293, stably transfected with the T-type calcium channel subunits. Briefly, cells were cultured in Dulbecco's modified eagle medium (DMEM) supplemented with 10% fetal bovine serum, 200 U/ml penicillin and 0.2 mg/ml streptomycin at 37° C. with 5% CO2. At 85% confluency cells were split with 0.25% trypsin/1 mM EDTA and plated at 10% confluency on glass coverslips. […] Fresh DMEM was supplied and the cells transferred to 28° C./5% CO2. Cells were incubated for 1 to 2 days prior to whole cell recording.
Standard patch-clamp techniques were employed to identify blockers of T-type currents. Briefly, previously described HEK cell lines stably expressing human α1G, α1H and α1I T-type channels were used for all the recordings (passage #: 4-20, 37° C., 5% CO2). Whole cell patch clamp experiments were performed using an Axopatch 200B amplifier (Axon Instruments, Burlingame, Calif.) linked to a personal computer equipped with pCLAMP software. Data were analyzed using Clampfit (Axon Instruments) and SigmaPlot 4.0 (Jandel Scientific). To obtain T-type currents, plastic dishes containing semi-confluent cells were positioned on the stage of a ZEISS AXIOVERT S100 microscope after replacing the culture medium with external solution (see below). Whole-cell patches were obtained using pipettes (borosilicate glass with filament, O.D.: 1.5 mm, I.D.: 0.86 mm, 10 cm length), fabricated on a SUTTER P-97 puller with resistance values of ˜5 MΩ (see below for internal solution).
In the non-inactivating protocol, the holding potential is set at −110 mV and with a pre-pulse at −100 mV for 1 second prior to the test pulse at −40 mV for 50 ms.
Test compounds were dissolved in external solution, 0.1-0.01% DMSO. After ˜10 min rest, they were applied by gravity close to the cell using a WPI microfil tubing. The “non-inactivated” pre-pulse was used to examine the resting block of a compound. The “inactivated” protocol was employed to study voltage-dependent block. […] Values are shown in μM and values above 10 μM are simply represented as 10 μM.
(In general: The patch-clamp technique gives a direct electrical read-out from membranes.)
As to `CC(C)(C)C(=O)N1CCC[C@H]1CN1CCC(CNC(=O)c2cc(F)cc(C(F)(F)F)c2)CC1` [Compound 423, (S)-3-fluoro-N-((1-((1-pivaloyl-pyrrolidin-2-yl)methyl)piperidin-4-yl)methyl)-5-(trifluoromethyl) benzamide], the IC50 stood at 2.08 µM.

Turning to `N#CC1CCN(CC(=O)N2CCC(CNC(=O)c3cc(C(F)(F)F)cc(C(F)(F)F)c3)CC2)CC1` [Compound 259, N-((1-(2-(4-cyanopiperidin-1-yl)acetyl)piperidin-4-yl)methyl)-3,5-bis(trifluoromethyl)benzamide], the IC50 was above 10 µM.

On to `CN(CC1CCN(CCNC(=O)CC(C)(C)C)CC1)C(=O)c1cc(F)cc(C(F)(F)F)c1` [Compound 413, N-((1-(2-(3,3-dimethylbutanamido)ethyl)piperidin-4-yl)methyl)-3-fluoro-N-methyl-5-(trifluoromethyl)benzamide], for which the IC50 is above 10 µM.

In the case of `Cc1cccc(C)c1NC(=O)CC1CCN(CCNS(=O)(=O)C(C)C)CC1` [Compound 433, N-(2,6-dimethylphenyl)-2-(1-(2-(1-methylethylsulfonamido)ethyl)piperidin-4-yl)acetamide], the IC50 was above 10 µM.

With `O=C(NCC1CCN(CCNC(=O)C2CCCC2)CC1)c1cc(F)cc(F)c1` [Compound 395, N-((1-(2-(cyclopentanecarboxamido)ethyl)piperidin-4-yl)methyl)-3,5-difluoro-benzamide], the IC50 is above 10 µM.

Turning to `CC(C)(C)CC(=O)N1CCC[C@H]1CN1CCC(CNC(=O)c2cc(F)cc(C(F)(F)F)c2)CC1` [Compound 424, (S)-N-((1-((1-(3,3-dimethylbutanol)pyrrolidin-2-yl)methyl)piperidin-4-yl)methyl)-3-fluoro-5-(trifluoromethyl)benzamide], the IC50 was 0.44 µM.

With `CC(C)(O)C(=O)N1CCC(CC(=O)Nc2cc(C(F)(F)F)cc(C(F)(F)F)c2)CC1` [Compound 154, N-(3,5-bis(trifluoromethyl)phenyl)-2-(1-(2-hydroxy-2-methylpropanoyl)piperidin-4-yl)acetamide], the IC50 worked out at 6.71 µM.

As for `CC(C)(C)OC(=O)NCCN1CCC(CNC(=O)c2ccccc2C(F)(F)F)CC1` [Compound 53, tert-butyl 2-(4-((2-(trifluoromethyl)benzamido)methyl)piperidin-1-yl)ethylcarbamate], the IC50 is above 10 µM.

On to `CC(C)(C)[C@H](O)C(=O)N1CCC(CNC(=O)c2cc(C(F)(F)F)cc(C(F)(F)F)c2)CC1` [Compound 76, (S)-N-((1-(2-hydroxy-3,3-dimethylbutanoyl)piperidin-4-yl)methyl)-3,5-bis(trifluoromethyl) benzamide], for which the IC50 was 7.62 µM.

For the compound `O=C(NCC1CCN(CCNC(=O)C2CCCC2)CC1)c1cccc(OC(F)(F)F)c1` [Compound 401, N-((1-(2-(cyclopentanecarboxamido)ethyl)piperidin-4-yl)methyl)-3-(trifluoromethoxy)benzamide], the IC50 came to 0.91 µM.

As to `CC(C)(C)C(O)CN1CCC(CC(=O)NCc2cccc(OC(F)F)c2)CC1` (centres unmarked) [Compound 175, N-(3-(difluoromethoxy)benzyl)-2-(1-(2-hydroxy-3,3-dimethylbutyl)piperidin-4-yl)acetamide], the IC50 is above 10 µM.

On to `O=C(NCC1CCN(C[C@@H]2CCCN2S(=O)(=O)CC2CC2)CC1)c1cc(F)cc(C(F)(F)F)c1` [Compound 421, (S)-N-((1-((1-(cyclopropylmethylsulfonyl)pyrrolidin-2-yl)methyl)piperidin-4-yl)methyl)-3-fluoro-5-(trifluoromethyl)benzamide], for which the IC50 amounted to 4.04 µM.

`CC(C)(C)C(N)CN1CCC(CC(=O)NC(c2cccc(F)c2)c2cccc(F)c2)CC1` (centres unmarked) [Compound 217, 2-(1-(2-amino-3,3-dimethylbutyl)piperidin-4-yl)-N-(bis(3-fluorophenyl)methyl)acetamide]: the IC50 stood at 5.82 µM.

For the compound `NC1(C(=O)N2CCC(CNC(=O)c3cc(C(F)(F)F)cc(C(F)(F)F)c3)CC2)CCCCC1` [Compound 86, N-((1-(1-aminocyclohexanecarbonyl)piperidin-4-yl)methyl)-3,5-bis(trifluoromethyl) benzamide], the IC50 was above 10 µM.

On to `CC(C)(C)C(CN1CCC(CC(=O)NCc2cc(Cl)cc(Cl)c2)CC1)NS(C)(=O)=O` (centres unmarked) [Compound 207, N-(3,5-dichhlorobenzyl)-2-(1-(3,3-dimethyl-2-(methylsulfonamido)butyl)piperidin-4-yl)acetamide], for which the IC50 is above 10 µM.

Regarding `CN(CC1CCN(CCNC(=O)NC(C)(C)C)CC1)C(=O)c1cc(F)cc(C(F)(F)F)c1` [Compound 411, N-((1-(2-(3-tert-butylureido)ethyl)piperidin-4-yl)methyl)-3-fluoro-N-methyl-5-(trifluoromethyl)benzamide], the IC50 was above 10 µM.

Take `CS(=O)(=O)N1CCC[C@H]1CN1CCC(CNC(=O)c2cc(F)cc(C(F)(F)F)c2)CC1` [Compound 416, (S)-3-fluoro-N-((1-((1-(methylsulfonyl)pyrrolidin-2-yl)methyl)piperidin-4-yl)methyl)-5-(trifluoromethyl)benzamide]: the IC50 is above 10 µM.

As for `O=C(NCC1CCN(CCNC(=O)C2CCCC2)CC1)c1cc(Cl)cc(C(F)(F)F)c1` [Compound 405, 3-chloro-N-((1-(2-(cyclopentanecarboxamido)ethyl)piperidin-4-yl)methyl)-5-(trifluoromethyl)benzamide], the IC50 was below 0.3 µM.

On to `CCOc1cc(OCC)cc(C(=O)NCC2CCN(CCNC(=O)C3CCCC3)CC2)c1` [Compound 403, N-((1-(2-(cyclopentanecarboxamido)ethyl)piperidin-4-yl)methyl)-3,5-diethoxybenzamide], for which the IC50 was determined as 1.11 µM.

On to `COc1cc(C(=O)NCC2CCN(CCNC(=O)C3CCCC3)CC2)cc(C(F)(F)F)c1` [Compound 404, N-((1-(2-(cyclopentanecarboxamido)ethyl)piperidin-4-yl)methyl)-3-methoxy-5-(trifluoromethyl)benzamide], for which the IC50 came out at 0.38 µM.

Regarding `O=C(NCC1CCN(CCNC(=O)C2CCCC2)CC1)c1cc(Br)cc(C(F)(F)F)c1` [Compound 407, 3-bromo-N-((1-(2-(cyclopentanecarboxamido)ethyl)piperidin-4-yl)methyl)-5-(trifluoromethyl)benzamide], the IC50 was below 0.3 µM.

Regarding `CC(C)(C)C(O)C(=O)N1CCC(CNC(=O)c2cc(C(F)(F)F)cc(C(F)(F)F)c2)CC1` (centres unmarked) [Compound 91, N-((1-(2-hydroxy-3,3-dimethylbutanoyl)piperidin-4-yl)methyl)-3,5-bis(trifluoromethyl)benzamide], the IC50 was above 10 µM.

For the compound `O=C(NCC1CCN(C[C@@H]2CCCN2C(=O)CCC(F)(F)F)CC1)c1cc(F)cc(C(F)(F)F)c1` [Compound 426, (S)-3-fluoro-N-((1-((1-(4,4,4-trifluorobutanoyl)pyrrolidin-2-yl)methyl)piperidin-4-yl)methyl)-5-(trifluoromethyl)benzamide], the IC50 is below 0.3 µM.

On to `CC1(NC(=O)CN2CCC(CNC(=O)c3cc(C(F)(F)F)cc(C(F)(F)F)c3)CC2)CCCCC1` [Compound 431, N-((1-(2-(1-methylcyclohexylamino)-2-oxoethyl)piperidin-4-yl)methyl)-3,5-bis(trifluoromethyl)benzamide], for which the IC50 is below 0.3 µM.

In the case of `O=C(NCC1CCN(C(=O)CNCCCN2CCOCC2)CC1)c1cc(F)cc(C(F)(F)F)c1` [Compound 270, 3-fluoro-N-((1-(2-(3-morpholinopropylamino)acetyl)piperidin-4-yl)methyl)-5-(trifluoromethyl)benzamide], the IC50 was above 10 µM.

Regarding `CC(C)(C)NC(=O)CN1CCC(CNC(=O)C2(c3ccc(Cl)cc3)CCCC2)CC1` [Compound 428, N-((1-(2-(tert-buylamino)-2-oxoethyl)piperidin-4-yl)methyl)-1-(4-chlorophenyl)cyclopentanecarboxamide], the IC50 is below 0.3 µM.

As for `NC1(C(=O)N2CCC(CC(=O)Nc3cc(C(F)(F)F)cc(C(F)(F)F)c3)CC2)CC1` [Compound 190, 2-(1-(1-aminocyclopropanecarbonyl)piperidin-4-yl)-N-(3,5-bis(trifluoromethyl)phenyl) acetamide], the IC50 is above 10 µM.

`CCS(=O)(=O)NC(CN1CCC(CC(=O)NCc2cc(Cl)cc(Cl)c2)CC1)C(C)(C)C` (centres unmarked) [Compound 208, N-(3,5-dichlorobenzyl)-2-(1-(2-(ethylsulfonamido)-3,3-dimethylbutyl)piperidin-4-yl)acetamide]: the half-maximal inhibitory concentration (IC50) is above 10 µM.

As to `CC(C)(C)C(O)CN1CCC(CC(=O)Nc2nc3ccccc3[nH]2)CC1` (centres unmarked) [Compound 166, N-(1H-benzo[d]imidazol-2-yl)-2-(1-(2-hydroxy-3,3-dimethylbutyl)piperidin-4-yl)acetamide], the IC50 was above 10 µM.
